In the supplement of paper PMC13380429:

Legend:
Settings in all cases: 72 h
[1] = tested on: HepG2; assay: cell viability relative to DMSO; higher = less toxic
[2] = tested on: Vero E6; assay: as above
[3] = tested on: Caco-2; assay: as above
[4] = tested on: U2OS; assay: as above
[5] = tested on: Calu-3; assay: as above
[6] = tested on: HepG2; assay: relative viability EC50 (midpoint between 100% and the lowest measured viability); higher = less toxic
[7] = tested on: Vero E6; assay: as above
[8] = tested on: Caco-2; assay: as above
[9] = tested on: U2OS; assay: as above
[10] = tested on: Calu-3; assay: as above
[11] = tested on: HepG2; assay: drug sensitivity score (DSS) for viability; higher = more toxic; extreme values may be limits of the assay
[12] = tested on: Vero E6; assay: as above
[13] = tested on: Caco-2; assay: as above
[14] = tested on: U2OS; assay: as above
[15] = tested on: Calu-3; assay: as above

Row | Compound | cell viability ([1]; 1 nM) [%] | cell viability ([1]; 10 nM) [%] | cell viability ([1]; 100 nM) [%] | cell viability ([1]; 1000 nM) [%] | cell viability ([1]; 10000 nM) [%] | cell viability ([2]; 1 nM) [%] | cell viability ([2]; 10 nM) [%] | cell viability ([2]; 100 nM) [%] | cell viability ([2]; 1000 nM) [%] | cell viability ([2]; 10000 nM) [%] | cell viability ([3]; 1 nM) [%] | cell viability ([3]; 10 nM) [%] | cell viability ([3]; 100 nM) [%] | cell viability ([3]; 1000 nM) [%] | cell viability ([3]; 10000 nM) [%] | cell viability ([4]; 1 nM) [%] | cell viability ([4]; 10 nM) [%] | cell viability ([4]; 100 nM) [%] | cell viability ([4]; 1000 nM) [%] | cell viability ([4]; 10000 nM) [%] | cell viability ([5]; 1 nM) [%] | cell viability ([5]; 10 nM) [%] | cell viability ([5]; 100 nM) [%] | cell viability ([5]; 1000 nM) [%] | cell viability ([5]; 10000 nM) [%] | relative viability EC50 [6] [µM] | relative viability EC50 [7] [µM] | relative viability EC50 [8] [µM] | relative viability EC50 [9] [µM] | relative viability EC50 [10] [µM] | drug sensitivity score [11] | drug sensitivity score [12] | drug sensitivity score [13] | drug sensitivity score [14] | drug sensitivity score [15]
1 | C[C@@]1(F)[C@H](O)[C@@H](CO)O[C@H]1n1ccc(N)nc1=O [PSI-6130] | 103 | 91.8 | 106 | 100 | 107 | 101 | 93.3 | 100 | 92.5 | 106 | 94.8 | 96.8 | 94.7 | 103 | 108 | 95.5 | 101 | 96.9 | 100 | 107 | 99.3 | 99.6 | 96 | 100 | 96.7 | > 10 | > 10 | > 10 | > 10 | > 10 | 0 | 0 | 0 | 0 | 0
2 | C[C@@H](CN1CCC(Cc2ccccc2)CC1)[C@@H](O)c1ccc(O)cc1 [Ro-25-6981] | 93.9 | 100 | 102 | 101 | 102 | 103 | 102 | 103 | 107 | 99.8 | 97.1 | 92.3 | 86.9 | 94.4 | 94.3 | 99.1 | 102 | 96.5 | 96.8 | 100 | 97.4 | 98.2 | 89.1 | 95.8 | 107 | > 10 | > 10 | > 10 | > 10 | > 10 | 0 | 0 | 0 | 0 | 0
3 | CC(C)SC(=N)N [S-isopropylisothiourea] | 101 | 109 | 103 | 94.5 | 108 | 103 | 99.2 | 99.5 | 89.9 | 97.2 | 99 | 95 | 96.7 | 105 | 91.9 | 96.9 | 98.2 | 96.3 | 103 | 102 | 100 | 99.5 | 102 | 97.1 | 84.8 | > 10 | > 10 | > 10 | > 10 | > 10 | 0 | 0 | 0 | 0 | 0.5
4 | O=C(NNc1nc2cc(F)ccc2n2cccc12)c1cnccn1 [SC-144] | 96 | 98.3 | 101 | 15.2 | 20.2 | 97.1 | 100 | 82.7 | 43.6 | 21.9 | 93.3 | 101 | 80.4 | 6.6 | 13.8 | 104 | 99.3 | 91.8 | 40.1 | 15.9 | 102 | 95.9 | 93.3 | 6 | 3.9 | 0.323 | 0.368 | 0.17 | 0.513 | 0.27 | 15.3 | 12.6 | 20 | 12.5 | 18.1
5 | N[C@@H](Cc1cc(-c2ccc(Cl)cc2Cl)cc(CP(=O)(O)O)c1O)C(=O)O [SDZ-220-040] | 97.4 | 108 | 99.2 | 104 | 89.1 | 98.7 | 102 | 106 | 104 | 100 | 103 | 99.5 | 94.3 | 94.3 | 102 | 105 | 98.6 | 103 | 98.2 | 100 | 105 | 104 | 98.2 | 108 | 110 | > 10 | > 10 | > 10 | > 10 | > 10 | 0 | 0 | 0 | 0 | 0
6 | Cc1cccc(/C=C/c2ccccc2)n1 [SIB-1893] | 108 | 96.1 | 107 | 102 | 94.2 | 94 | 104 | 102 | 103 | 100 | 88.7 | 101 | 90.7 | 100 | 96.9 | 99.8 | 106 | 96.3 | 103 | 97.4 | 100 | 102 | 99.2 | 98.1 | 102 | > 10 | > 10 | > 10 | > 10 | > 10 | 0 | 0 | 0 | 0 | 0
7 | N[C@@H](C(=O)O)[C@@H](OCc1ccccc1)C(=O)O.N[C@H](C(=O)O)[C@H](OCc1ccccc1)C(=O)O [TBOA-(DL)] | 100 | 94.1 | 91.5 | 96.6 | 82.5 | 104 | 100 | 101 | 96.6 | 98.8 | 96.3 | 94.6 | 89.8 | 90.2 | 92.4 | 99.5 | 101 | 97.2 | 95 | 99.2 | 96.7 | 87.8 | 92.4 | 98.4 | 109 | > 10 | > 10 | > 10 | > 10 | > 10 | 0.3 | 0 | 0 | 0 | 0
8 | COC1CCN(c2cccc(-c3cc(NC(C)=O)nc(-n4nc(C)cc4C)n3)n2)CC1 [TC-G-1004] | 84.7 | 101 | 75.3 | 90.9 | 44 | 103 | 107 | 101 | 104 | 86.7 | 106 | 89.3 | 111 | 96.9 | 20.7 | 105 | 97.6 | 104 | 102 | 95 | 103 | 94.9 | 103 | 91.8 | 93.1 | 1.12 | > 10 | 2.88 | > 10 | > 10 | 5.5 | 0.1 | 4.8 | 0 | 0
9 | CC(C)(C)NCC(O)c1cc(O)cc(O)c1 (stereo not given) [TERBUTALINE HEMISULFATE] | 109 | 102 | 106 | 94.5 | 92.3 | 105 | 101 | 101 | 105 | 98.9 | 99 | 104 | 88.7 | 91.8 | 98.2 | 102 | 98.6 | 105 | 100 | 106 | 104 | 106 | 99.7 | 95 | 98.3 | > 10 | > 10 | > 10 | > 10 | > 10 | 0 | 0 | 0.6 | 0 | 0
10 | Nc1nc(NC2CC2)cc(-c2cccc(Cl)c2Cl)n1 [TH-588] | 95.4 | 97.1 | 102 | 101 | 95.4 | 100 | 104 | 98.1 | 101 | 89.6 | 92.1 | 91.1 | 96.4 | 93.7 | 96.8 | 96.3 | 99.2 | 105 | 97.9 | 98.6 | 95.5 | 94 | 101 | 104 | 98.5 | > 10 | > 10 | > 10 | > 10 | > 10 | 0 | 0 | 0 | 0 | 0
11 | CC(C)(C)C(=O)OCOP(=O)(COCCn1cnc2c(N)ncnc21)OCOC(=O)C(C)(C)C [adefovir-dipivoxil] | 106 | 93.8 | 101 | 49.1 | 25.2 | 101 | 106 | 107 | 99.7 | 89.3 | 93.7 | 87.6 | 87.5 | 95.4 | 75.6 | 96.2 | 101 | 97.8 | 102 | 75.5 | 92.9 | 97.6 | 106 | 95.5 | 47.6 | 0.741 | > 10 | > 10 | > 10 | 2.46 | 10.1 | 0 | 1.9 | 0.8 | 3.5
12 | CC(=O)[C@H]1CC[C@H]2[C@@H]3CC[C@H]4C[C@H](O)CC[C@]4(C)[C@H]3C(=O)C[C@]12C [alfaxalone] | 98.6 | 102 | 94.1 | 96.1 | 106 | 99.6 | 95.9 | 99.7 | 94.3 | 107 | 101 | 101 | 89.6 | 103 | 104 | 97.8 | 99.2 | 97.7 | 103 | 102 | 94.7 | 99.9 | 87.7 | 97.4 | 101 | > 10 | > 10 | > 10 | > 10 | > 10 | 0 | 0 | 0 | 0 | 0
13 | COc1cc(F)c(C(C)C)cc1-c1ccc(C(F)(F)F)cc1CN1C(=O)O[C@H](c2cc(C(F)(F)F)cc(C(F)(F)F)c2)[C@@H]1C [anacetrapib] | 108 | 103 | 98.2 | 92.6 | 98.8 | 108 | 107 | 97.6 | 102 | 93.2 | 98.1 | 90.8 | 100 | 96.1 | 93.8 | 96.6 | 100 | 101 | 99.8 | 97.7 | 97.7 | 97 | 108 | 93.6 | 102 | > 10 | > 10 | > 10 | > 10 | > 10 | 0 | 0 | 0 | 0 | 0
14 | CN(C)C(=N)NCCC[C@H](N)C(=O)O [asymmetrical-dimethylarginine] | 86.7 | 96.8 | 95.1 | 105 | 101 | 97.4 | 101 | 96.5 | 101 | 90.7 | 101 | 99.4 | 97.9 | 93.3 | 101 | 100 | 93.2 | 96.2 | 93.5 | 97 | 107 | 99.9 | 112 | 102 | 97.9 | > 10 | > 10 | > 10 | > 10 | > 10 | 0 | 0 | 0 | 0 | 0
